Measurements taken from PubChem BioAssay AID493135 (Sanford-Burnham Center for Chemical Genomics, 2011).
Active and inactive are the calls of the source. The rule behind the calls is not given here.

The molecules below were run against intestinal alkaline phosphatase Alpi (Mus musculus) (assay: mouse IAP enzyme inhibitors, SAR follow-up, biochemical, luminescence (AID 493135)). Conditions: purified mouse IAP, luminescent substrate readout.

Compound | IC50
COc1ccc(C(=O)CSc2n[nH]c(-c3ccccc3)n2)cc1OC | > 100 µM (inactive)
Cc1ccc(CN2CCC(C(=O)Nc3cccc(-c4cccc(F)c4)c3)CC2)o1 | > 100 µM (inactive)
Oc1ccc(-c2csc(Nc3cccc4ccccc34)n2)cc1O | 1.11 µM
Cc1ccc(NC(=O)CCNS(=O)(=O)c2ccc3[nH]c(=O)oc3c2)cc1C | 87.1 µM
S=C(NCCC(c1ccccc1)c1ccccc1)Nc1ccc(Nc2ccccc2)cc1 | > 100 µM (inactive)
O=C(Nc1cccc(-c2cccc(Cl)c2)c1)C1CCN(Cc2ccc(CO)o2)CC1 | > 100 µM (inactive)
COc1ccc(Cl)cc1NC(=S)NCCC(c1ccccc1)c1ccccc1 | > 100 µM (inactive)
Cc1c(Cl)cccc1NC(=S)NCCC(c1ccccc1)c1ccccc1 | > 100 µM (inactive)
COc1ccc(Cl)cc1Nc1nc(-c2ccc(O)c(O)c2)cs1 | 1.42 µM
Cn1cc(CN2CCC(C(=O)Nc3cccc(-c4cccc(Cl)c4)c3)CC2)cn1 | > 100 µM (inactive)
COc1cccc(-c2cccc(NC(=O)C3CCN(Cc4ccc(CO)o4)CC3)c2)c1 | > 100 µM (inactive)
CCc1ccccc1Nc1nc(-c2ccc(O)c(O)c2)cs1 | 1.55 µM
CN1CCC(=NNC(=O)c2cc(O)c(O)c(O)c2)CC1 | 38.7 µM
O=C(Nc1cccc(-c2cccc(Cl)c2)c1)C1CCN(C2CCC2)CC1 | > 100 µM (inactive)
COc1cc([N+](=O)[O-])ccc1NC(=S)NCCC(c1ccccc1)c1ccccc1 | > 100 µM (inactive)
O=C(CN1C(=O)/C(=C/c2ccco2)SC1=S)Nc1ccc(C(=O)O)cc1 | 7.97 µM
CCn1cc(CN2CCC(C(=O)Nc3cccc(-c4cccc(OC)c4)c3)CC2)cn1 | > 100 µM (inactive)
FC(F)(F)c1cccc(NC(=S)NCCC(c2ccccc2)c2ccccc2)c1 | > 100 µM (inactive)
Cc1cc(=O)oc2cc(NC(=S)NCCC(c3ccccc3)c3ccccc3)ccc12 | > 100 µM (inactive)
Cc1cc(NC(=O)CCNS(=O)(=O)c2ccc3[nH]c(=O)oc3c2)ccc1Br | 81.8 µM
Cc1c(CN2CCC(C(=O)Nc3cccc(-c4cccc(Cl)c4)c3)CC2)cnn1C | > 100 µM (inactive)
CC1(c2ccccc2)CC(C)(C)N(C(=S)Nc2ccccc2)c2ccccc21 (stereo not drawn) | > 100 µM (inactive)
S=C(NCCC(c1ccccc1)c1ccccc1)Nc1ccccc1 | > 100 µM (inactive)

Compound | IC50
COc1cccc(-c2cccc(NC(=O)C3CCN(Cc4ccc(C)o4)CC3)c2)c1 | > 100 µM (inactive)
S=C(NCCC(c1ccccc1)c1ccccc1)Nc1cccc(Cl)c1 | > 100 µM (inactive)
C=CCn1cc(CN2CCC(C(=O)Nc3cccc(-c4cccc(F)c4)c3)CC2)c(C)n1 | > 100 µM (inactive)
Cc1ccc(NC(=S)NCCC(c2ccccc2)c2ccccc2)cc1C | > 100 µM (inactive)
O=S(=O)(Nc1ncccn1)c1ccc(NC(=S)NCCC(c2ccccc2)c2ccccc2)cc1 | > 100 µM (inactive)
S=C(NCCC(c1ccccc1)c1ccccc1)Nc1ccc(Cl)cc1 | > 100 µM (inactive)
O=C(CN1C(=O)/C(=C/c2ccco2)SC1=S)Nc1cccc(C(=O)O)c1 | 8.17 µM
Cc1cc(C)cc(NC(=S)NCCC(c2ccccc2)c2ccccc2)c1 | > 100 µM (inactive)
Cc1cc(Cl)ccc1NC(=S)NCCC(c1ccccc1)c1ccccc1 | > 100 µM (inactive)
COc1cccc(NC(=S)NCCC(c2ccccc2)c2ccccc2)c1 | > 100 µM (inactive)
O=[N+]([O-])c1ccc(NC(=S)NCCC(c2ccccc2)c2ccccc2)cc1 | > 100 µM (inactive)
COCc1ccc(CN2CCC(C(=O)Nc3cccc(-c4cccc(Cl)c4)c3)CC2)o1 | > 100 µM (inactive)
CCN1CCN(S(=O)(=O)c2ccc3[nH]c(=O)oc3c2)CC1 | > 100 µM (inactive)
CCn1cc(CN2CCC(C(=O)Nc3cccc(-c4cccc(Cl)c4)c3)CC2)cn1 | > 100 µM (inactive)
CCCn1ncc(CN2CCC(C(=O)Nc3cccc(-c4cccc(F)c4)c3)CC2)c1C | > 100 µM (inactive)
Cc1ccc(NC(=S)NCCC(c2ccccc2)c2ccccc2)cc1 | > 100 µM (inactive)
Cn1cc(CN2CCC(C(=O)Nc3cccc(-c4cccc(F)c4)c3)CC2)cn1 | > 100 µM (inactive)
COC(=O)c1cc(NC(=S)NCCC(c2ccccc2)c2ccccc2)cc(C(=O)OC)c1 | > 100 µM (inactive)
NS(=O)(=O)c1ccc(NC(=S)NCCC(c2ccccc2)c2ccccc2)cc1 | > 100 µM (inactive)
C=CCn1cc(CN2CCC(C(=O)Nc3cccc(-c4cccc(Cl)c4)c3)CC2)c(C)n1 | > 100 µM (inactive)
O=C(CN1C(=O)/C(=C\c2ccco2)SC1=S)Nc1ccccc1C(=O)O | 58.7 µM
CC(C)c1ccccc1NC(=S)NCCC(c1ccccc1)c1ccccc1 | > 100 µM (inactive)
CCn1nc(C)c(CN2CCC(C(=O)Nc3cccc(-c4cccc(F)c4)c3)CC2)c1C | > 100 µM (inactive)

Compound | IC50
Fc1ccc(NC(=S)NCCC(c2ccccc2)c2ccccc2)cc1Cl | > 100 µM (inactive)
CCn1nc(C)c(CN2CCC(C(=O)Nc3cccc(-c4cccc(Cl)c4)c3)CC2)c1C | > 100 µM (inactive)
CCn1cc(CN2CCC(C(=O)Nc3cccc(-c4cccc(F)c4)c3)CC2)cn1 | > 100 µM (inactive)
CCn1cc(CN2CCC(C(=O)Nc3cccc(-c4cccc(OC)c4)c3)CC2)c(C)n1 | > 100 µM (inactive)
O=C(Nc1cccc(-c2cccc(F)c2)c1)C1CCN(Cc2ccc(CO)o2)CC1 | > 100 µM (inactive)
Cc1c(Cl)cccc1Nc1nc(-c2ccc(O)c(O)c2)cs1 | 7.51 µM
Cc1nn(C)c(Cl)c1CN1CCC(C(=O)Nc2cccc(-c3cccc(F)c3)c2)CC1 | > 100 µM (inactive)
S=C(NCCC(c1ccccc1)c1ccccc1)Nc1ccc(Cl)cc1Cl | > 100 µM (inactive)
CN(C)S(=O)(=O)c1cccc(NC(=S)NCCC(c2ccccc2)c2ccccc2)c1 | > 100 µM (inactive)
CCn1c(SCC(=O)c2ccc(O)c(O)c2)nnc1-c1ccccc1OC | 1.9 µM
COc1ccc(NC(=S)NCCC(c2ccccc2)c2ccccc2)cc1 | > 100 µM (inactive)
COc1cc(NC(=S)NCCC(c2ccccc2)c2ccccc2)cc(OC)c1 | > 100 µM (inactive)
CCn1ncc(CN2CCC(C(=O)Nc3cccc(-c4cccc(F)c4)c3)CC2)c1C | > 100 µM (inactive)
Fc1ccccc1NC(=S)NCCC(c1ccccc1)c1ccccc1 | > 100 µM (inactive)
CC(C)n1cc(CN2CCC(C(=O)Nc3cccc(-c4cccc(Cl)c4)c3)CC2)cn1 | > 100 µM (inactive)
Cc1ccc(C)c(NC(=S)NCCC(c2ccccc2)c2ccccc2)c1 | > 100 µM (inactive)
CC(C)N1CCC(=NNC(=O)c2cc(O)c(O)c(O)c2)CC1 | 24.9 µM
CCOC(=O)c1ccc(NC(=S)NCCC(c2ccccc2)c2ccccc2)cc1 | > 100 µM (inactive)
Cc1cccc(NC(=S)NCCC(c2ccccc2)c2ccccc2)c1C | > 100 µM (inactive)
CC(C)n1cc(CN2CCC(C(=O)Nc3cccc(-c4cccc(F)c4)c3)CC2)cn1 | > 100 µM (inactive)
S=C(NCCC(c1ccccc1)c1ccccc1)Nc1ccc(Cl)c(Cl)c1 | > 100 µM (inactive)
Cc1nn(C(C)C)c(C)c1CN1CCC(C(=O)Nc2cccc(-c3cccc(F)c3)c2)CC1 | > 100 µM (inactive)
